Assay results from PubChem BioAssay AID1224920 (Broad Institute, 2016).
Active and inactive are the calls of the source.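 The calls were made as follows: active = IC50 no higher than ten times the top tested dose; inconclusive = flat fit with 30 to 70% inhibition, or poor fit; inactive = IC50 above ten times the top dose.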

Assay: growth modulation of Clostridium difficile isolate – OD600, 9-point, retest, dose response (AID 1224920);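 also: plate controls were DMSO for no effect and levofloxacin control for full effect; inhibitors lower culture turbidity so OD600 falls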
Conditions: Clostridium difficile clinical isolate growth, OD600, 24 h; at 30 µM (top of the series)

Compound	activity change, negative = inhibition
COc1cccc(-c2ccc3c(c2)[C@@H]2[C@@H](CCN2Cc2ccccc2OC)[C@@H](CO)N3)c1	-7.43% (inactive)

Same assay, conditions: Clostridium difficile clinical isolate growth, OD600, 24 h; at 60 µM (top of the series)

Compound	activity change, negative = inhibition
O=C(C1CCCC1)N1C[C@@H]2N[C@H](C1)C2c1ccc(-c2ccccc2F)cc1 (stereo partly specified)	51.8% (inactive)
COc1ccc2c3c(n(C)c2c1)[C@H](CO)NCC31CN(Cc2ccc(F)cc2)C1	7.43% (inactive)
CN(C)CC(=O)N1C[C@@H]2N[C@H](C1)C2c1ccc(/C=C/c2ccccc2)cc1 (stereo partly specified)	46.6% (inactive)
O=C(c1ccc(F)cc1)N1CC[C@@H]2[C@H]1c1cc(C3=CCCCC3)ccc1N[C@@H]2CO	34.8% (inactive)
O=C(C1CCCC1)N1C[C@@H]2N[C@H](C1)C2c1ccc(-c2cccc(F)c2)cc1 (stereo partly specified)	46.7% (inactive)

Same assay, conditions: Clostridium difficile clinical isolate growth, OD600, 24 h; at 68 µM (top of the series)

Compound	activity change, negative = inhibition
O=C(Cc1ccccc1)N1CC[C@@H]2[C@H](CO)Nc3ccc(C4=CCCCC4)cc3[C@@H]21	29.4% (inactive)

Same assay, conditions: Clostridium difficile clinical isolate growth, OD600, 24 h; at 120 µM (top of the series)

Compound	activity change, negative = inhibition
COc1ccc(S(=O)(=O)N2CCCCN3[C@H](CO)[C@@H](c4ccc(C#CC(C)C)cc4)[C@H]3C2)cc1	39.3% (inactive)
Cc1ccc(-c2ccc([C@@H]3[C@H]4CN(C(=O)Nc5cccc(F)c5)CCCCN4[C@H]3CO)cc2)cc1	6.7% (inactive)
Cc1noc(C)c1NC(=O)N(C)C[C@H]1Oc2ccc(NC(=O)Nc3ccc4c(c3)OCO4)cc2CC(=O)N([C@H](C)CO)C[C@@H]1C	-2.04% (inactive)
COc1ccc2c3c(n(C)c2c1)[C@H](CO)N(C(=O)c1cccnc1)CC31CCN(C(=O)c2cccnc2)CC1	0.941% (inactive)
Cc1ccc(-c2ccc([C@@H]3[C@@H](CO)N4CCCCN(C(=O)Nc5ccccc5)C[C@@H]34)cc2)cc1	27.7% (inactive)
C[C@H](CO)N1C[C@H](C)[C@@H](CN(C)S(=O)(=O)c2ccc(Cl)cc2)Oc2c(NS(=O)(=O)c3ccccc3)cccc2C1=O	-3.11% (inactive)
CN1c2ccc(-c3cccc(F)c3)cc2[C@H]2[C@H](CCN2C(=O)C2CCCC2)[C@H]1CO	40.6% (inactive)
CC(=O)N1[C@H](CN(C)C(=O)CN2CCOCC2)[C@@H](c2ccccc2)[C@@H]1CO	-1.26% (inactive)
C[C@@H]1CN([C@@H](C)CO)C(=O)Cc2cc(NS(=O)(=O)c3ccccc3)ccc2O[C@@H]1CN(C)Cc1ccc(Oc2ccccc2)cc1	39.5% (inactive)

Same assay, conditions: Clostridium difficile clinical isolate growth, OD600, 24 h; at 135 µM (top of the series)

Compound	activity change, negative = inhibition
COc1ccccc1S(=O)(=O)N1CC[C@@H]2[C@@H](CO)Nc3ccc(-c4ccc(F)cc4)cc3[C@@H]21	47% (inactive)
COc1ccc(NC(=O)N2CC[C@H]3[C@@H]2c2cc(Br)ccc2N(C)[C@H]3CO)cc1	4.83% (inactive)
COc1cccc(-c2ccc3c(c2)[C@@H]2[C@@H](CCN2C(=O)Nc2ccccc2OC)[C@@H](CO)N3C)c1	-19.3% (inactive)
C/C=C/c1ccc([C@H]2[C@H](CO)N(C(=O)CC)[C@H]2CNC(=O)CC)cc1	-9.32% (inactive)
O=C(Nc1cccc(F)c1)N1CC(=O)N2[C@H](C1)[C@H](c1ccc(-c3cccc(F)c3)cc1)[C@@H]2CO	37.9% (inactive)
